Experimental data: patent US5620997A, “Isothiazolones” (Warner-Lambert Company, priority 1995, dated 1997)
pEC50, pIC50: −log10 of the molar value.

Tests used:
[1] = biological target: T1, HIV-1 Nucleocapsid Protein (NCp7) (Human immunodeficiency virus type 1 group M subtype B, UniProt P12493); assay: Fluorescence-based (TSQ) assay of zinc ejection from purified HIV-1 NCp7; type: biochemical; settings: 10 μM compound, 2.8 μM NCp7, 47 μM TSQ, pH 7.4, 26° C., 90 minutes
T1 construct: The NCp7 protein containing 2 Zn-fingers and 2 Zn ions
Description: The compounds of the present invention cause the extrusion of zinc from the nucleocapsid protein (NCp7) of HIV-1. The NC protein is highly conserved among all retroviruses (South T., Blake P., et al., Biochemistry, 1990;;29:7786) and is essential for viral infectivity (Aldovini A. and Young R., J. Virology, 1990;64:1920 and Gorelick R., Nigida S., et al., J. Virology, 1990;64:3207). The zinc is normally held in NC proteins by 1 or 2 zinc fingers. In the case of HIV-1, 2 zinc fingers are present (Summers M., South T., et al., Biochemistry, 1990;29:329) and are involved specifically with the PSI site on viral RNA which controls the packaging of viral RNA. Interference of this packaging causes the formation of non-infectious virions (Dannull J., Surovoy A., et al., EMBO, 1994;13:1525). It has previously been shown that compounds that cause zinc extrusion have potent anti-HIV activity in multiple cell lines and against all retroviruses (Rice W., Schaeffer C., et al., Nature, 1993;361:473).
A fluorescence-based assay has been developed to monitor the ejection of zinc from purified HIV-1 NCp7. The fluorophore, N-(6-methoxy-8-quinolyl)-p-toluenesulfonamide (TSQ), has an increased fluorescent signal upon bonding zinc ion in solution. The NCp7 protein containing 2 Zn-fingers and 2 Zn ions is incubated with drug causing the extrusion of Zn ions. The released Zn is then sequestered by the TSQ and the increased fluorescence monitored relative to control. The assay was performed as follows: 10 μM compound was added to 2.8 μM NCp7 and 47 μM TSQ in 20 μL of pH 7.4 buffer at 26° C. for 90 minutes. Fluorescence (excitation 355 nm emission 400 nm) was monitored versus time. Controls were the NCp7 under assay conditions without drug, and apo NCp7 (no Zn) with drug. The % Zn extrusion was calculated based on the actual fluorescence measured divided by the fluorescence of all theoretical Zn extruded (5.6 μM)×100.
Table 1 below presents the results of testing several of the invention compounds in zinc extrusion assay described above. The compounds were evaluated for their ability to cause the extrusion of zinc from nucleocapsid protein NCp7 (expressed as % relative to control).

[2] = tested on: HIV; assay: CEM cell assay, anti-HIV activity (XTT, protection from viral cytopathic effects); type: cell-based; settings: Human immunodeficiency virus 1, CCRF-CEM; Effective concentration which protects cells from viral cytopathic effects
Description: The test systems utilized to establish the cellular antiviral activity of the isothiazolones of Formula I are well recognized in the art and are routinely employed for such purpose. For example, the assay utilized to evaluate the compounds activity against the HIV virus is that employed by the U.S. National Cancer Institute as described by Weislow O. S., et al., J. Natl. Cancer Inst., 1989;81:577-586, incorporated herein by reference.
The procedure is designed to detect agents acting at any stage of the virus reproductive cycle. The assay basically involves the killing of T4 lymphocytes by HIV. Small amounts of HIV are added to cells, and at least two complete cycles of virus reproduction are necessary to obtain the required cell killing. Agents which interact with virions, cells, or virus gene-products to interfere with viral activities will protect cells from cytolysis. The system is automated in several features to accommodate large numbers of candidate agents, and is generally designed to detect anti-HIV activity. However, compounds which degenerate or are rapidly metabolized in the culture conditions may not show activity in this screen.
Yet another test system employed to determine antiviral activity is called the CEM cell assay.
T4 lymphocytes (CEM cell line) are exposed to HIV at a virus to cell ratio approximately 0.05, and plated along with noninfected control cells in 96-well microliter plates.
Candidate agent is dissolved in dimethyl sulfoxide (unless otherwise noted), then diluted 1:200 in cell culture medium. Further dilutions (half-log10) are prepared before adding to an equal volume of medium containing either infected or noninfected cells.
Cultures are incubated at 37° in a 5% carbon dioxide atmosphere for 6 or 7 days. The tetrazolium salt, XTT, is added to all wells, and cultures are incubated to allow formazan color development by viable cells J. National Cancer Institute, 1989;81:577-586. Individual wells are analyzed spectrophotometrically to quantitate formazan production, and in addition are viewed microscopically for detection of viable cells confirmation of protective activity.
Drug-tested virus-infected cells are compared with drug-treated noninfected cells and with other appropriate controls (untreated infected and untreated noninfected cells, drug-contain wells without cells, etc.) on the same plate. Data are reviewed in comparison with other tests done at the same time and a determination about activity is made.

[3] = CEM cell assay, toxicity (growth inhibition); type: cell-based; settings: human, cem cells; Toxic concentration which inhibits the growth of cells 50% relative to control; read-out: CEM Cell Assay TC50
Procedure: T4 lymphocytes (CEM cell line) are exposed to HIV at a virus to cell ratio approximately 0.05, and plated along with noninfected control cells in 96-well microliter plates. Candidate agent is dissolved in dimethyl sulfoxide (unless otherwise noted), then diluted 1:200 in cell culture medium. Further dilutions (half-log10) are prepared before adding to an equal volume of medium containing either infected or noninfected cells. Cultures are incubated at 37° in a 5% carbon dioxide atmosphere for 6 or 7 days. The tetrazolium salt, XTT, is added to all wells, and cultures are incubated to allow formazan color development by viable cells J. National Cancer Institute, 1989;81:577-586. Individual wells are analyzed spectrophotometrically to quantitate formazan production, and in addition are viewed microscopically for detection of viable cells confirmation of protective activity. Drug-tested virus-infected cells are compared with drug-treated noninfected cells and with other appropriate controls (untreated infected and untreated noninfected cells, drug-contain wells without cells, etc.) on the same plate. Data are reviewed in comparison with other tests done at the same time and a determination about activity is made.

[4] = biological target: T2, rabbit reticulocyte 15-LO (Oryctolagus cuniculus, UniProt P12530); assay: Colorimetric Assay of 15-LO Inhibition; type: biochemical; settings: colorimetric method
T2 construct: rabbit reticulocyte 15-LO; from tissue; host or cells: rabbit reticulocytes
T2 sequence (P12530 1-663): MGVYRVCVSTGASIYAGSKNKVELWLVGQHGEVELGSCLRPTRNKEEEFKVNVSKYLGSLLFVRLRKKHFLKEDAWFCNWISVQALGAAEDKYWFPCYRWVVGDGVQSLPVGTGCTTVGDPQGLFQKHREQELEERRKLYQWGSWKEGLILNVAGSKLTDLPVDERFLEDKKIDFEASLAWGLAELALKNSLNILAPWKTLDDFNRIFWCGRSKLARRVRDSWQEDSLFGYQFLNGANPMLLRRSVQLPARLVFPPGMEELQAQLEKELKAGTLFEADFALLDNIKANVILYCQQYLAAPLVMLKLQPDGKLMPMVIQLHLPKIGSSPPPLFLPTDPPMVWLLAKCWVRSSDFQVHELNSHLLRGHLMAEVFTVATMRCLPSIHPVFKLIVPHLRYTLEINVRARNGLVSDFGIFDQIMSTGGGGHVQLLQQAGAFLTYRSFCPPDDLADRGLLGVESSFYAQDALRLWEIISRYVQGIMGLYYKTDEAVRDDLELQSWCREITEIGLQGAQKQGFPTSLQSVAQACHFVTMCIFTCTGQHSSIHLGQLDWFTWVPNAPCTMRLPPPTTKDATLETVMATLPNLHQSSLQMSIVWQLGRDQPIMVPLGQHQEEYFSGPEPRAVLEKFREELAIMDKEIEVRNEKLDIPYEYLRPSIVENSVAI
Procedure: (§1) The isothiazolones of Formula I are also effective for treating inflammation and atherosclerosis. A characteristic feature of atherosclerosis is the accumulation of cholesteryl ester engorged from foam cells. Foam cells are derived from circulating monocytes which invade artery walls in response to hypercholesterolemia, and mature into tissue macrophages. […] Specifically, representative compounds were evaluated by the methods described by Auerbach, et al., Analytical Biochemistry, 1992;201:375-380. Two in vitro assays were utilized, both utilizing rabbit reticulocyte 15-LO, and linoleic acid as substrate, to enzymatically produce a peroxide oxidation product known as 13(S)-HPODE. N-Benzoyl leucomethylene blue was utilized as a colorimetric reagent for detection and quantification of the peroxide formation. Also, HPLC was utilized to quantify the oxidation following incubation at 4° C. for 10 minutes.
(§2) Table 3 gives the concentration of compound required to inhibit 50% of the activity of 15-LO (IC50) when measured by the HPLC method of Auerbach, et al. Table 4 gives the percent inhibition of 15-LO activity when evaluated by the colorimetric method.

[5] = biological target: T2, rabbit reticulocyte 15-LO; assay: HPLC Assay of 15-LO Inhibition; type: biochemical; settings: HPLC method; linoleic acid substrate, 4° C., 10 minutes
Procedure: as §1, §2

SMILES | % Zn Extrusion Relative to Control [1] | pIC50 [5] | further results
CC[C@H](C)[C@@H](C(=O)O)n1sc2ccccc2c1=O [Example 2, [S-(R*,R*)]-3-Methyl-2-(3-oxo-3h-benzo[d]isothiazol-2-yl)pentanoic acid] | 30% | – | pEC50 [2]: 4.85; CC50 [3]: > 100000 nM
CC(=O)NS(=O)(=O)c1ccc(-n2sc3ccccc3c2=O)cc1 [Example 3, N-Acetyl-4-(3-oxo-3h-benzo[d]isothiazol-2-yl)-benzenesulfonamide] | – | – | inhibition at 10 µM [4]: 75%
O=C(O)Cn1sc2ccccc2c1=O [Example 13, 2-(3-Oxo-3h-benzo[d]isothiazol-2-yl) acetic acid] | 75% | – | –
CC(C)C(C(=O)O)n1sc2ccccc2c1=O (centres unmarked) [Example 14, 3-Methyl-2-(3-oxo-3h-benzo[d]isothiazol-2-yl)-butanoic acid] | 71% | – | pEC50 [2]: 4.68; CC50 [3]: > 100000 nM
O=c1c2ccccc2sn1-c1ccccc1 [Example 15, 2-Phenyl-3-oxo-3h-benz[d]isothiazole] | 97% | – | –
O=C(O)CCCn1sc2ccccc2c1=O [Example 17, 4-(3-Oxo-2-h-benzo[d]isothiaz-2-yl) butanoic acid] | 78% | – | pEC50 [2]: 5.24; CC50 [3]: > 100000 nM
Cc1ccnc(-n2sc3ccccc3c2=O)c1 [Example 18, 2-(4-Methylpyridin-2-yl)-3-oxo-3h-benzo[d]isothiazole] | 100% | – | –
CCN(CC)CCn1sc2nc(-c3ccccc3)ncc2c1=O [Example 21, 2-[2-(Diethylamino)ethyl]-6-phenyl-isothiazolo[5,4-d] pyrimidin-3(2H)-one] | – | – | inhibition at 10 µM [4]: 95%
CN(C)c1ncc2c(=O)n(Cc3ccccn3)sc2n1 [Example 23, 6-(Dimethylamino)-2-(2-pyridinylmethyl)isothiazolo [5,4-d]pyrimidin-3-(2H)-one] | – | 6.40 | –
O=c1c2cnc(-c3ccccc3)nc2sn1Cc1ccccc1 [Example 24, 2-Benzyl-6-phenyl-isothiazolo[5,4-d]pyrimidin-3-one] | – | 6.52 | –
O=C(O)Cc1ccc(-n2sc3ccccc3c2=O)cc1 [Example 25, 4-(3-Oxo-3h-benz-[d]isothiazol-2-yl)-phenyl acetic acid] | 89% | – | pEC50 [2]: 5.24; CC50 [3]: 69000 nM
O=c1c2cnc(-c3ccccc3)nc2sn1CCN1CCOCC1 [Example 27, 2-(2-Morpholin-4-yl-ethyl)-6-phenyl-isothiazolo[5,4-d) pyrimidin-3-one] | – | 6.57 | –
O=c1c2cnc(-c3ccccc3)nc2sn1CCc1ccccc1 [Example 28, 2-Phenethyl-6-phenyl-isothiazolo[5,4-d]pyrimidin-3-one] | – | 6.12 | –
O=c1c2cnc(-c3ccccc3)nc2sn1Cc1ccccn1 [Example 29, 6-phenyl-2-pyridin-2-ylmethyl-isothiazolo[5,4-d] pyrimidin-3-one] | – | 6.41 | –
O=c1c2cnc(-c3ccccc3)nc2sn1CCc1ccccn1 [Example 30, 6-phenyl-2-(2-pyridin-2-yl-ethyl)-isothiazolo[5,4-d] pyrimidin-3-one] | – | 6.54 | –
O=c1c2cnc(N3CCCCC3)nc2sn1CCc1ccccn1 [Example 31, 6-Piperidin-1-yl-2-(2-pyridin-2-yl-ethyl)-isothiazolo [5,4-d]pyrimidin-3-one] | – | 5.89 | –
O=c1[nH]sc2nc(N3CCCCC3)ncc12 [Example 32, 6-Piperidin-1-yl-isothiazolo[5,4-d]pyrimidin-3-one] | – | 5.49 | –
O=c1c2cnc(N3CCOCC3)nc2sn1CCN1CCCCC1 [Example 33, 6-Morpholin-4-yl-2-(2-piperidin-1-yl-ethyl)-isothiazolo [5,4-d]pyrimidin-3-one] | – | 6.92 | –
CN(C)c1ncc2c(=O)n(CCc3ccccn3)sc2n1 [Example 34, 6-Dimethylamino-2-(2-pyridin-2-yl-ethyl)-isothiazolo [5,4-d]pyrimidin-3-one] | – | 5.77 | –
CN(C)c1ncc2c(=O)n(CCN3CCCCC3)sc2n1 [Example 35, 6-Dimethylamino-2-(2-piperidin-1-yl-ethyl)-isothiazolo [5,4-d]pyrimidin-3-one] | – | 6.80 | –
NS(=O)(=O)c1ccc(NC(=O)c2ccccc2S)cc1 [Preparation 29, 2-Mercapto-N-(4-sulfamoylphenyl)benzamide] | 5.8% | – | –
